≈ marks a conversion by molar mass, not a printed value.
How the values were obtained:
[1] = molecular target: T1, Prostaglandin G/H synthase 2 (Homo sapiens) (UniProt P35354); test: Inhibition of COX-2 (unknown origin) assessed as inhibition at 100 mg/kg relative to control; assay type: organism-based
T1 sequence (whole entry): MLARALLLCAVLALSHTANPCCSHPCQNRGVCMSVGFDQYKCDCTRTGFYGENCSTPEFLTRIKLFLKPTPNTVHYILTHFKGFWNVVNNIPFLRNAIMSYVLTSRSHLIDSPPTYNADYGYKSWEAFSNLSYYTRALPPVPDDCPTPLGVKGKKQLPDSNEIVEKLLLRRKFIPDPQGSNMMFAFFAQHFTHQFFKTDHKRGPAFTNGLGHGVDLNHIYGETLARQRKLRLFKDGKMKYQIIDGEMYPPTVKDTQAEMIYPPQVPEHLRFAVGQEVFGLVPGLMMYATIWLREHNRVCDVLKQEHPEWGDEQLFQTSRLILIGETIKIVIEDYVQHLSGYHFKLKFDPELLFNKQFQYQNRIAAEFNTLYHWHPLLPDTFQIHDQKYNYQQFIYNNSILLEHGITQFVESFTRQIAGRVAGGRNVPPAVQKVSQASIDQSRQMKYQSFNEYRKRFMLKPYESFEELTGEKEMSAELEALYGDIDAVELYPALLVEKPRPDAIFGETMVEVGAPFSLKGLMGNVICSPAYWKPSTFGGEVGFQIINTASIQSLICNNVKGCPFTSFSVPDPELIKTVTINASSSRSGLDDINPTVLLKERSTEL

Rattus norvegicus [2] = test: Anti-inflammatory activity in Carageenan-induced foot paw edema in Swiss albino rat assessed as reduction in volume of paw edema measured after 1 hr relative to control; assay type: functional; design: scale not given: the % may be the effect or the level left
Rattus norvegicus [3] = test: Anti-inflammatory activity in Carageenan-induced foot paw edema in Swiss albino rat assessed as reduction in volume of paw edema measured after 2 hr relative to control; assay type: functional; design: scale not given: the % may be the effect or the level left
Rattus norvegicus [4] = test: Anti-inflammatory activity in Carageenan-induced foot paw edema in Swiss albino rat assessed as reduction in volume of paw edema measured after 4 hr relative to control; assay type: functional; design: scale not given: the % may be the effect or the level left
Rattus norvegicus [5] = test: Anti-inflammatory activity in Carageenan-induced foot paw edema in Swiss albino rat assessed as reduction in volume of paw edema measured after 6 hr relative to control; assay type: functional; design: scale not given: the % may be the effect or the level left
[6] = Antioxidant activity assessed as DPPH radical scavenging activity incubated for 20 mins by spectrophotometric analysis; assay type: functional
[7] = Anti-inflammatory activity assessed as heat -induced protein denaturation using hen egg albumin at 31.25 ug/ml relative to control; assay type: functional; settings: dose 31.25 µg/ml
RAW264.7 [8] = test: Anti-inflammatory activity in mouse RAW264.7 cells assessed as inhibition of LPS-induced NO production measured after 24 hrs; assay type: functional, cell-based; settings: RAW264.7, 24 h
[9] = Anti-inflammatory activity assessed using bovine serum albumin/egg albumin proteins assessed as protein denaturation measured at 95 degC for 20 mins by measuring turbidity by UV-Vis spectrophotometer; assay type: functional
Erythrocyte [10] = test: Anti-inflammatory activity in rat red blood cells assessed as stabilization of cell membrane at 200 microg/ml relative to control; assay type: functional; settings: dose 200 µg/ml
Erythrocyte [11] = test: Anti-inflammatory activity in rat red blood cells assessed as stabilization of cell membrane at 500 microg/ml relative to control; assay type: functional; settings: dose 500 µg/ml
[12] = molecular target: T2, Polyunsaturated fatty acid 5-lipoxygenase (Homo sapiens, UniProt P09917); test: Inhibition of 5-LOX (unknown origin) after 5 mins by colorimetric method
T2 sequence (P09917 whole entry): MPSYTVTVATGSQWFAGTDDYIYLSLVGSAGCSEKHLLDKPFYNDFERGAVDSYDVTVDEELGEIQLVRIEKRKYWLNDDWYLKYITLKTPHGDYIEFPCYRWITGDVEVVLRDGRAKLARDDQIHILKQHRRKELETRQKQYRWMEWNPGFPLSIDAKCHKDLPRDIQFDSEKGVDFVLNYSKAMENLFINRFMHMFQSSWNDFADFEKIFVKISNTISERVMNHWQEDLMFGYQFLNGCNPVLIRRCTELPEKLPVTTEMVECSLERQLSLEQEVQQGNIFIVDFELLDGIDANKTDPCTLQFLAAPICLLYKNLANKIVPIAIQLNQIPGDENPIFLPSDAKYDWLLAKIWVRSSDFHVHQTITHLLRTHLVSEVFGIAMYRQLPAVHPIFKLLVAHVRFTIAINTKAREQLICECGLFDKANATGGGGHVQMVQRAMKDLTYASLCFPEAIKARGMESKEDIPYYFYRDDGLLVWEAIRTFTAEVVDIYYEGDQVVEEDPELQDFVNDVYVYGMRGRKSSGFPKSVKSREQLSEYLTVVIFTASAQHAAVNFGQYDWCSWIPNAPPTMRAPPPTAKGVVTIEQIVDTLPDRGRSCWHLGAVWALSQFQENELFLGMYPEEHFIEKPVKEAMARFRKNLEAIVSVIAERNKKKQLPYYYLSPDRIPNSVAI

Mus musculus = test: Anti-inflammatory activity against Carrageenan-induced paw edema in mouse model assessed as inhibition of edema at 100 mg/kg measured after 3 hrs relative to control; assay type: functional; design: scale not given: the % may be the effect or the level left
Rattus norvegicus [13] = test: Anti-inflammatory activity against Carrageenan-induced paw edema in PO dosed Wistar albino rat assessed as inhibition of edema measured after 3 hr relative to control; assay type: functional; design: scale not given: the % may be the effect or the level left
RAW264.7 [14] = test: Anti-inflammatory activity in mouse RAW264.7 cells assessed as inhibition of LPS-induced NO production in macrophages; assay type: functional, cell-based
Rattus norvegicus [15] = test: Anti-inflammatory activity against Carrageenan-induced paw edema in PO dosed Wistar albino rat assessed as reduction in hind paw edema volume at 20 mg/kg relative to control; assay type: functional; design: scale not given: the % may be the effect or the level left
Rattus norvegicus [16] = test: Anti-inflammatory activity in Wistar rat assessed as reduced hind paw edema at 25 mg/kg relative to control; assay type: functional; design: scale not given: the % may be the effect or the level left
[17] = Selectivity index, ratio of IC50 for ovine COX1 to IC50 for recombinant human COX2
Rattus norvegicus [18] = test: Anti-inflammatory activity against formalin-induced foot paw edema in PO dosed rat at 10 mg/kg assessed as inhibition of edema measured after 5 hr relative to control; assay type: functional; design: scale not given: the % may be the effect or the level left
Rattus norvegicus [19] = test: Anti-ulcerative activity in aspirin induced Wistar rat ulcer model assessed as inhibition of ulcer index at 20 mg/kg,po; assay type: functional
[20] = molecular target: T3, Prostaglandin G/H synthase 1 (Ovis aries, UniProt P05979); test: Inhibition of ovine COX-1 by EIA method
T3 sequence (P05979 whole entry): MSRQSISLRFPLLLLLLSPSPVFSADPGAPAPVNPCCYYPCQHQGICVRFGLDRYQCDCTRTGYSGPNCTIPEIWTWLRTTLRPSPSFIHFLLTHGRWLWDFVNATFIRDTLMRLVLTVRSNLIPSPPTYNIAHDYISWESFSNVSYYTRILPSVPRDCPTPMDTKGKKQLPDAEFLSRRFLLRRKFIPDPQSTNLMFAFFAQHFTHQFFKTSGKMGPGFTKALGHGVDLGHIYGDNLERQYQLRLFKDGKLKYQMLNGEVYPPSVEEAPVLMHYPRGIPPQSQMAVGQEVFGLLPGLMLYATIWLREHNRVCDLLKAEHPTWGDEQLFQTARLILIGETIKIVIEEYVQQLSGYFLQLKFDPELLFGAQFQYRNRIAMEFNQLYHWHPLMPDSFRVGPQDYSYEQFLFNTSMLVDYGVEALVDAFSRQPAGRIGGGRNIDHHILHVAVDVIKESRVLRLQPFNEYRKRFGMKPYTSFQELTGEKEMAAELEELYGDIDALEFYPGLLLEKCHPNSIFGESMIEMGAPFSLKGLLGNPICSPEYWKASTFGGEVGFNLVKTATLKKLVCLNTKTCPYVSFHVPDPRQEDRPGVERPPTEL

Rattus norvegicus [21] = test: Anti-inflammatory activity against formalin-induced foot paw edema in PO dosed rat at 10 mg/kg assessed as inhibition of edema measured after 4 hr relative to control; assay type: functional
Rattus norvegicus [22] = test: Anti-inflammatory activity against Carrageenan-induced paw edema in PO dosed Wistar albino rat assessed as inhibition of edema measured after 1 hr relative to control; assay type: functional; design: scale not given: the % may be the effect or the level left
Rattus norvegicus [23] = test: Anti-inflammatory activity against Carrageenan-induced paw edema in PO dosed Wistar albino rat assessed as inhibition of edema measured after 2 hr relative to control; assay type: functional; design: scale not given: the % may be the effect or the level left
Rattus norvegicus [24] = test: Anti-inflammatory activity against Carrageenan-induced paw edema in PO dosed Wistar albino rat assessed as inhibition of edema measured after 4 hr relative to control; assay type: functional; design: scale not given: the % may be the effect or the level left
Rattus norvegicus [25] = test: Anti-inflammatory activity against carrageenan-induced Albino Wistar rat paw edema model assessed as inhibition of rat paw edema at 50 mg/kg, po after 3 hrs relative to control; assay type: functional; design: scale not given: the % may be the effect or the level left
Rattus norvegicus [26] = test: Anti-ulcerative activity in Carrageenan-induced Sprague-Dawley rat ulcer model assessed as inhibition of ulcer index at 10 mg/kg,po; assay type: functional

CC(=O)Oc1ccccc1C(=O)O
inhibition [1]: 11.1%

CCCC1Nc2cc(C(=O)N/N=C/c3ccc(Cl)c(Cl)c3O)cc(C)c2N1 (stereo not given)
Activity (Rattus norvegicus [2]): 43.3%
Activity (Rattus norvegicus [3]): 57.62%
Activity (Rattus norvegicus [4]): 79.51%
Activity (Rattus norvegicus [5]): 83.5%

O=C1O[C@H]([C@@H](O)CO)C(O)=C1O
Activity [6]: 81.3%

Cc1c(/N=C/c2c(OCc3cc(=O)oc4cc(O)ccc34)ccc3ccccc23)c(=O)n(-c2ccccc2)n1C
Activity [7]: 67.3%

C[C@]12CC[C@H]3[C@@H](CC=C4C[C@@H](O)CC[C@@]43C)[C@@H]1CC[C@@H]2C1=NN(C(N)=S)C(c2cccc(F)c2)C1 (stereo not given in full)
IC50 (RAW264.7 [8]): 860 nM

Cc1ccc(-c2nn(-c3ccccc3)cc2CCC(=O)OCc2cn(-c3ccc([N+](=O)[O-])cc3)nn2)cc1
IC50 [9]: 57.24 µg/mL (≈ 113 µM)
Activity (Erythrocyte [10]): 74%
Activity (Erythrocyte [11]): 97%

O=C(O)c1ccc(CSc2nc3cc(F)c(Oc4ccc(F)cc4)cc3[nH]2)cc1
IC50 [12]: 900 nM
Activity (Mus musculus): 66.13%

N#CC(C#N)/N=N/c1ccc2c(c1)CCC2
Activity (Rattus norvegicus [13]): 64.83%

C[C@]12CCC(=O)C=C1CC[C@@H]1[C@@H]2[C@@H](O)C[C@@]2(C)[C@H]1CC[C@]2(O)C(=O)CO [HYDROCORTISONE]
IC50 (RAW264.7 [14]): 3260 nM

O=C1/C(=N\Nc2ccccc2Br)C(Nc2ccccc2F)=NN1CNc1ccccc1
Activity (Rattus norvegicus [15]): 64%

NS(=O)(=O)c1ccc(-n2nc(C(=O)NNC(=O)c3cccc(Cl)c3)cc2-c2ccccc2)cc1
Activity (Rattus norvegicus [16]): >60%

COc1ccc(N2C(=O)/C(=C/c3cn(-c4ccc(S(C)(=O)=O)cc4)nc3-c3cccc(Cl)c3)NC2=S)cc1
Selectivity Index [17]: 9.32
Activity (Rattus norvegicus [18]): 60%
UI (Rattus norvegicus [19]): 2.64

O=C(O)C(F)(F)C(O)c1cn(-c2ccccc2)nc1-c1ccc(Cl)cc1Cl (stereo not given)
inhibition [1]: 38.6%
Activity [6]: 76%

O=C1NC(=O)C(=NNc2cccc(-c3nc4ccccc4[nH]3)c2)C(=O)N1
IC50 [20]: 2760 nM

Nc1cc(-c2ccccc2)nn1-c1nc2c(cnn2-c2ccccc2)c(=O)n1-c1ccccc1
inhibition in vivo at 10 mg/kg (Rattus norvegicus [21]): 50%

CC(=O)Nc1ccc(OC(=O)CCCC(=O)/C=C/c2cn(-c3ccccc3)nc2-c2ccccc2)cc1
Activity (Rattus norvegicus [22]): 20%
Activity (Rattus norvegicus [23]): 15.56%
Activity (Rattus norvegicus [24]): 28.57%

CS(=O)(=O)c1ccc(-n2cc(/C=N/Nc3ccc(S(N)(=O)=O)cc3)c(-c3ccc(Br)cc3)n2)cc1
Activity (Rattus norvegicus [25]): 80%
UI (Rattus norvegicus [26]): 3.77

COc1ccc2oc(=O)cc(COc3ccc4ccccc4c3/C=N/c3c(C)n(C)n(-c4ccccc4)c3=O)c2c1
Activity [7]: 53.6%

From ChEMBL document CHEMBL5233249, “Recent advancements in the development of heterocyclic anti-inflammatory agents” (Eur J Med Chem, 2020)
